Reference: PubChem BioAssay AID330 (DTP/NCI, 2004)
Where “and” joins values, the source holds several entries; their conditions need not be identical. Equal values may be shown once. Inconclusive results and toxic doses are left out. How the source made its calls: active means survival T/C of 150% or more; inactive means T/C below 125% in these data.

Tested on: P388 leukemia ip, CD2F1 mice, survival T/C
Test: NCI In Vivo Anticancer Drug Screen. Data for tumor model P388 Leukemia (intraperitoneal) in CD2F1 (CDF1) mice
Details: endpoint: median survival time, higher = longer survival
Outline: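 Mice carrying the transplanted tumor received test compound or vehicle. Survival was recorded in each group, and the value is the treated-group measurement divided by that of the vehicle-treated control group.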

[1] = dose: 50.0 mg/kg/injection, schedule: Q01DX009 (ip), vehicle: saline with Tween-80
[2] = dose: 100.0 mg/kg/injection, schedule: Q04DX003 (ip), vehicle: saline with Tween-80
[3] = dose: 200.0 mg/kg/injection, schedule: Q04DX003 (ip), vehicle: saline with Tween-80
[4] = dose: 400.0 mg/kg/injection, schedule: Q04DX003 (ip), vehicle: saline with Tween-80
[5] = dose: 60.0 mg/kg/injection, schedule: Q01DX005 (ip), vehicle: saline with Tween-80
[6] = dose: 120.0 mg/kg/injection, schedule: Q01DX005 (ip), vehicle: saline with Tween-80
[7] = dose: 240.0 mg/kg/injection, schedule: Q01DX005 (ip), vehicle: saline with Tween-80
[8] = dose: 100.0 mg/kg/injection, schedule: Q01DX009 (ip), vehicle: saline with Tween-80
[9] = dose: 200.0 mg/kg/injection, schedule: Q01DX009 (ip), vehicle: saline with Tween-80
[10] = dose: 100.0 mg/kg/injection, schedule: Q04DX003 (ip), vehicle: saline
[11] = dose: 200.0 mg/kg/injection, schedule: Q04DX003 (ip), vehicle: saline
[12] = dose: 30.0 mg/kg/injection, schedule: Q01DX005 (ip), vehicle: saline with Tween-80
[13] = dose: 50.0 mg/kg/injection, schedule: Q01DX009 (ip), vehicle: Klucel (hydroxypropylcellulose) (HPC)
[14] = dose: 100.0 mg/kg/injection, schedule: Q01DX009 (ip), vehicle: Klucel (hydroxypropylcellulose) (HPC)
[15] = dose: 200.0 mg/kg/injection, schedule: Q01DX009 (ip), vehicle: Klucel (hydroxypropylcellulose) (HPC)
[16] = dose: 50.0 mg/kg/injection, schedule: Q01DX009 (ip), vehicle: saline
[17] = dose: 100.0 mg/kg/injection, schedule: Q01DX009 (ip), vehicle: saline
[18] = dose: 200.0 mg/kg/injection, schedule: Q01DX009 (ip), vehicle: saline

Measured: T/C

CC(=O)[C@@]1(O)CC[C@H]2[C@@H]3C=C(C)C4=CC(=O)CC[C@]4(C)[C@@]3(F)[C@@H](O)C[C@@]21C
inactive: dose: 12.5 mg/kg/injection, schedule: Q01DX009 (ip), vehicle: saline with Tween-80 100 % of control | dose: 25.0 mg/kg/injection, schedule: Q01DX009 (ip), vehicle: saline with Tween-80 90 % of control | [1] 109 % of control | [2] 91 % of control | [3] 95 % of control | [4] 100 % of control

Cc1cc(CSCCc2nc3ccccc3[nH]2)c(O)c(CSCCc2nc3ccccc3[nH]2)c1
inactive: [5] 107 % of control | [6] 93 % of control | [7] 90 % of control

Cc1ccc(C2C=CC(C#N)=CN2Cc2ccccc2)cc1 (centres undefined)
inactive: dose: 50.0 mg/kg/injection, schedule: Q01DX005 (ip), vehicle: Klucel (hydroxypropylcellulose) (HPC) 99 % of control | dose: 100.0 mg/kg/injection, schedule: Q01DX005 (ip), vehicle: Klucel (hydroxypropylcellulose) (HPC) 104 % of control | dose: 200.0 mg/kg/injection, schedule: Q01DX005 (ip), vehicle: Klucel (hydroxypropylcellulose) (HPC) 101 % of control

Nc1[nH]c(=S)[nH]c(=O)c1N=Cc1ccc2c(c1)OCO2
inactive: dose: 100.0 mg/kg/injection, schedule: Q04DX003 (ip), vehicle: Klucel (hydroxypropylcellulose) (HPC) 108 % of control and 113 % of control | dose: 200.0 mg/kg/injection, schedule: Q04DX003 (ip), vehicle: Klucel (hydroxypropylcellulose) (HPC) 112 % of control and 114 % of control

CCOP(=S)(OCC)OC(=O)C(C)SSC (centres undefined) (tested in a mixture with another compound)
inactive: [5] 101 % of control | [6] 104 % of control

CC1(C)N=C(N)N=C(N)N1c1cccc(CCCCc2ccccc2)c1
inactive: dose: 0.75 mg/kg/injection, schedule: Q01DX009 (ip), vehicle: saline sonified 109 % of control | dose: 1.5 mg/kg/injection, schedule: Q01DX009 (ip), vehicle: saline sonified 113 % of control | dose: 3.0 mg/kg/injection, schedule: Q01DX009 (ip), vehicle: saline sonified 118 % of control | dose: 50.0 mg/kg/injection, schedule: Q04DX003 (ip), vehicle: saline sonified 86 % of control

O=[N+]([O-])c1ccc(SCN2CCCCC2)cc1
inactive: [1] 104 % of control | [8] 104 % of control | [9] 118 % of control

[Br][Hg][CH]1CCC2CCCC1O2 (centres undefined)
inactive: dose: 12.5 mg/kg/injection, schedule: Q01DX009 (ip), vehicle: Klucel (hydroxypropylcellulose) (HPC) 89 % of control | dose: 25.0 mg/kg/injection, schedule: Q01DX009 (ip), vehicle: Klucel (hydroxypropylcellulose) (HPC) 90 % of control

[BH]n1cccn1.[CH3][Sn]([CH3])[N]=C=S
inactive: [10] 117 % of control | [11] 117 % of control

CCN(CC)CCOCCCNc1ccnc2cc(Cl)ccc12
inactive: dose: 50.0 mg/kg/injection, schedule: Q01DX005 (ip), vehicle: saline 100 % of control | dose: 100.0 mg/kg/injection, schedule: Q01DX005 (ip), vehicle: saline 103 % of control

O=P(c1ccccc1)(c1ccccc1)c1ccccc1.[Cl][Sn]([c]1ccccc1)([c]1ccccc1)[c]1ccccc1
inactive: [10] 100 % of control | [11] 106 % of control | dose: 400.0 mg/kg/injection, schedule: Q04DX003 (ip), vehicle: saline 118 % of control

Cn1c(-c2ccc3c(c2)OCO3)cc(=O)c2ccccc21
inactive: [12] 97 % of control | [5] 92 % of control | [6] 92 % of control

O=c1[nH]c(=O)c2n[nH]nc2[nH]1
inactive: [8] 86 % of control | [2] 90 % of control | [9] 100 % of control | [3] 90 % of control | dose: 400.0 mg/kg/injection, schedule: Q01DX009 (ip), vehicle: saline with Tween-80 95 % of control | [4] 100 % of control

Nc1nc(=O)nc2[nH]c3c4cccc5cccc(c3nc12)c54
inactive: [5] 96 % of control | dose: 100.0 mg/kg/injection, schedule: Q04DX002 (ip), vehicle: Klucel (hydroxypropylcellulose) (HPC) 100 % of control | [6] 93 % of control | dose: 200.0 mg/kg/injection, schedule: Q04DX002 (ip), vehicle: Klucel (hydroxypropylcellulose) (HPC) 100 % of control | [7] 100 % of control | dose: 400.0 mg/kg/injection, schedule: Q04DX002 (ip), vehicle: Klucel (hydroxypropylcellulose) (HPC) 101 % of control

Cc1c(N2CCCC2)cc2c(c1NC(=O)c1ccccc1Cl)C(C)(C)CC2(C)C
inactive: [13] 99 % of control | [14] 100 % of control | [15] 99 % of control

CCCCOc1cccc2c(NCCCCCCCCNc3c4ccccc4nc4c(OCCCC)cccc34)c3ccccc3nc12
inactive: dose: 0.62 mg/kg/injection, schedule: Q## X009 (ip), vehicle: lactic acid 107 % of control | dose: 1.25 mg/kg/injection, schedule: Q## X009 (ip), vehicle: lactic acid 99 % of control | dose: 2.5 mg/kg/injection, schedule: Q## X009 (ip), vehicle: lactic acid 99 % of control | dose: 5.0 mg/kg/injection, schedule: Q## X009 (ip), vehicle: lactic acid 106 % of control | dose: 10.0 mg/kg/injection, schedule: Q## X009 (ip), vehicle: lactic acid 91 % of control

CP1(=S)CCC(=O)C1 (centres undefined)
inactive: [16] 101 % of control | [17] 101 % of control | [18] 103 % of control

Cc1cc(C)n(C(N)=NC(=O)c2ccccc2)n1
inactive: [13] 104 % of control and 106 % of control | [14] 100 % of control | [15] 109 % of control

N#CC1(O)CCCCC1
inactive: dose: 2.5 mg/kg/injection, schedule: Q01DX009 (ip), vehicle: saline with Tween-80 100 % of control | dose: 5.0 mg/kg/injection, schedule: Q01DX009 (ip), vehicle: saline with Tween-80 104 % of control | dose: 10.0 mg/kg/injection, schedule: Q01DX009 (ip), vehicle: saline with Tween-80 104 % of control

O=[N+]([O-])c1nccn1CCCO
inactive: dose: 12.5 mg/kg/injection, schedule: Q01DX009 (ip), vehicle: water 98 % of control | dose: 25.0 mg/kg/injection, schedule: Q01DX009 (ip), vehicle: water 97 % of control | dose: 50.0 mg/kg/injection, schedule: Q01DX009 (ip), vehicle: water 100 % of control | dose: 100.0 mg/kg/injection, schedule: Q01DX009 (ip), vehicle: water 103 % of control | dose: 200.0 mg/kg/injection, schedule: Q01DX009 (ip), vehicle: water 100 % of control

COc1cccc(C2(O)CCCc3c(C)ccnc32)c1 (centres undefined)
inactive: dose: 60.0 mg/kg/injection, schedule: Q01DX005 (ip), vehicle: Klucel (hydroxypropylcellulose) (HPC) 103 % of control | dose: 120.0 mg/kg/injection, schedule: Q01DX005 (ip), vehicle: Klucel (hydroxypropylcellulose) (HPC) 112 % of control | dose: 240.0 mg/kg/injection, schedule: Q01DX005 (ip), vehicle: Klucel (hydroxypropylcellulose) (HPC) 115 % of control

CC(O)C1OC(O)C2OC(C)(C)OC12 (centres undefined)
inactive: dose: 60.0 mg/kg/injection, schedule: Q01DX005 (ip), vehicle: saline 98 % of control | dose: 120.0 mg/kg/injection, schedule: Q01DX005 (ip), vehicle: saline 95 % of control | dose: 240.0 mg/kg/injection, schedule: Q01DX005 (ip), vehicle: saline 98 % of control

N#CSc1c(-c2ccccc2)c2c(N)[nH]c(=O)nc2[nH]c1=O
inactive: dose: 15.0 mg/kg/injection, schedule: Q01DX005 (ip), vehicle: saline with Tween-80 107 % of control | [12] 99 % of control | [5] 90 % of control

CC1OCC(O)C(C(O)C(=O)CN(Cc2ccccc2)Cc2ccccc2)O1 (centres undefined)
inactive: dose: 50.0 mg/kg/injection, schedule: Q01DX005 (ip), vehicle: saline with Tween-80 99 % of control | dose: 100.0 mg/kg/injection, schedule: Q01DX005 (ip), vehicle: saline with Tween-80 99 % of control | dose: 200.0 mg/kg/injection, schedule: Q01DX005 (ip), vehicle: saline with Tween-80 91 % of control

CN(C)CC#CC1(O)c2ccccc2CCc2ccccc21
inactive: [16] 91 % of control | [17] 91 % of control | [18] 91 % of control
